The values below come from patent US8404708B2, “Dual NK1/NK3 receptor antagonists” (Hoffmann-La Roche Inc., priority 2004, dated 2013).

In general, Ki refers to the dissociation constant of the complex between target and ligand, obtained from inhibition or displacement.

One test deals with human NK1 receptor (Homo sapiens, UniProt P25103). Kind of test: NK1 receptor binding, [3H]substance P displacement, CHO cell membranes. As to conditions: first value of the cell pKi NK1/NK3; human NK1 receptor, [3H]substance P.
Chain of human NK1 receptor (P25103 whole entry): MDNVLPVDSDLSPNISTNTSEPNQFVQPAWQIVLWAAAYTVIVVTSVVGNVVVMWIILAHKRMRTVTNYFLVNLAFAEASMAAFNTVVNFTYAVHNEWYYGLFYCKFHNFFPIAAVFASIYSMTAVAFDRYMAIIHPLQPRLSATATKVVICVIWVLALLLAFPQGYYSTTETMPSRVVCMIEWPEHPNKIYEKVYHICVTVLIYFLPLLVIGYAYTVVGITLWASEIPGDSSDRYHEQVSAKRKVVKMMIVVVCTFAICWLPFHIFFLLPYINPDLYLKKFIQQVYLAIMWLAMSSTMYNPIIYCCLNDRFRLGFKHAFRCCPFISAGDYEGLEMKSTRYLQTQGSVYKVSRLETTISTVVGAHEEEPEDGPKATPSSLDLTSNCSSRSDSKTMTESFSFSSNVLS
Test [1] concerns the target T1, Recombinant human NK3 (hNK3) receptor (Homo sapiens, UniProt P29371).
T1 construct: expressed in transfected cells
T1 sequence (P29371 1-465): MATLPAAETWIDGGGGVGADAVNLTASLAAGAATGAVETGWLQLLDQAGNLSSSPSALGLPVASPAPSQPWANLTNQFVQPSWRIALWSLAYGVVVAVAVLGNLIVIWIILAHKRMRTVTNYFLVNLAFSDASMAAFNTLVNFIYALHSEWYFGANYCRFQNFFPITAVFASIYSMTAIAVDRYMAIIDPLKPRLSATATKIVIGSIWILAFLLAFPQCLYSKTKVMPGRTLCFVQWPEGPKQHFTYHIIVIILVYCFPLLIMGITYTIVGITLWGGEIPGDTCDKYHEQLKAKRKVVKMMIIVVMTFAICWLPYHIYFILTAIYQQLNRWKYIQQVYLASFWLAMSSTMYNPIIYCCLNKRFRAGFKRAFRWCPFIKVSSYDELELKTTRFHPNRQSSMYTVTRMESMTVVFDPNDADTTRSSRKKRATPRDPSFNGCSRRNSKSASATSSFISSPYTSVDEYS
Put plainly: NK3 receptor binding, [3H]SR142801 displacement, membrane preparations. The following applies: second value of the cell pKi NK1/NK3; hNK3 receptor, [3H]SR142801. Put shortly:
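Room-temperature, 90-min filtration binding assay using about 2.5 μg recombinant receptor membranes per well; separation on polyethyleneimine-treated glass-fibre (GF/C) filters and liquid scintillation read-out, with 10 μM SB222200 for nonspecific binding.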

As for `C[C@H](O)CNc1cc(-c2ccccc2Br)c(N(C)C(=O)C(C)(C)c2cc(C(F)(F)F)cc(C(F)(F)F)c2)cn1` [Example 131, (S)-2-(3,5-Bis-trifluoromethyl-phenyl)-N-[4-(2-bromo-phenyl)-6-(2-hydroxy-propylamino)-pyridin-3-yl]-N-methyl-isobutyramide], the Ki at human NK1 receptor was 1.07 nM; in test [1], 4.27 nM.
With `CN(C(=O)C(C)(C)c1cc(C(F)(F)F)cc(C(F)(F)F)c1)c1cnc(N[C@H]2CC[C@H](O)CC2)cc1-c1ccccc1Br` [Example 132, trans-2-(3,5-Bis-trifluoromethyl-phenyl)-N-[4-(2-bromo-phenyl)-6-(4-hydroxy-cyclohexylamino)-pyridin-3-yl]-N-methyl-isobutyramide], the Ki is 1.32 nM at human NK1 receptor and 7.24 nM in test [1].
As for `CC(=O)N[C@H]1CCN(c2cc(-c3ccccc3Br)c(N(C)C(=O)C(C)(C)c3cc(C(F)(F)F)cc(C(F)(F)F)c3)cn2)C1` [Example 133, (S)-N-[6-(3-Acetylamino-pyrrolidin-1-yl)-4-(2-bromo-phenyl)-pyridin-3-yl]-2-(3,5-bis-trifluoromethyl-phenyl)-N-methyl-isobutyramide], the inhibition constant (Ki) at human NK1 receptor is 0.794 nM; in test [1], 2 nM.
Take `CN(C(=O)C(C)(C)c1cc(C(F)(F)F)cc(C(F)(F)F)c1)c1cnc(N(CCO)CCO)cc1-c1ccccc1Br` [Example 134, N-[6-[Bis-(2-hydroxy-ethyl)-amino]-4-(2-bromo-phenyl)-pyridin-3-yl]-2-(3,5-bis-trifluoromethyl-phenyl)-N-methyl-isobutyramide]: the Ki at human NK1 receptor was 2.24 nM; in test [1] it was 2.19 nM.
The corresponding values for `CN(C(=O)C(C)(C)c1cc(C(F)(F)F)cc(C(F)(F)F)c1)c1cnc(N2C[C@H](O)C[C@H]2CO)cc1-c1ccc(Cl)c(Cl)c1` [Example 135, (2S,4R)-2-(3,5-Bis-trifluoromethyl-phenyl)-N-[4-(3,4-dichloro-phenyl)-6-(4-hydroxy-2-hydroxymethyl-pyrrolidin-1-yl)-pyridin-3-yl]-N-methyl-isobutyramide] are 4.27 nM and 31.6 nM.
The corresponding values for `CN(C(=O)C(C)(C)c1cc(C(F)(F)F)cc(C(F)(F)F)c1)c1cnc(N2C[C@H](O)C[C@H]2CO)cc1-c1ccc(Cl)cc1Cl` [Example 136, (2S,4R)-2-(3,5-Bis-trifluoromethyl-phenyl)-N-[4-(2,4-dichloro-phenyl)-6-(4-hydroxy-2-hydroxymethyl-pyrrolidin-1-yl)-pyridin-3-yl]-N-methyl-isobutyramide] are 1.62 nM and 1.45 nM.
Consider `CN(C(=O)C(C)(C)c1cc(C(F)(F)F)cc(C(F)(F)F)c1)c1cnc(N2CC[C@H](O)[C@H]2CO)cc1-c1ccc(Cl)cc1Cl` [Example 137, (2R,3S)-2-(3,5-Bis-trifluoromethyl-phenyl)-N-[4-(2,4-dichloro-phenyl)-6-(3-hydroxy-2-hydroxymethyl-pyrrolidin-1-yl)-pyridin-3-yl]-N-methyl-isobutyramide], for which the Ki was 2.82 nM on human NK1 receptor and 1.35 nM in test [1].
The corresponding values for `CN(C(=O)C(C)(C)c1cc(C(F)(F)F)cc(C(F)(F)F)c1)c1cnc(N2CC[C@H](O)[C@H]2CO)cc1-c1ccccc1Cl` [Example 138, (2R,3S)-2-(3,5-Bis-trifluoromethyl-phenyl)-N-[4-(2-chloro-phenyl)-6-(3-hydroxy-2-hydroxymethyl-pyrrolidin-1-yl)-pyridin-3-yl]-N-methyl-isobutyramide] are 1.66 nM and 1 nM.
For `Cc1cc(F)ccc1-c1cc(NC(CO)CO)ncc1N(C)C(=O)C(C)(C)c1cc(C(F)(F)F)cc(C(F)(F)F)c1` [Example 142, 2-(3,5-bis-trifluoromethyl-phenyl)-N-[4-(4-fluoro-2-methyl-phenyl)-6-(2-hydroxy-1-hydroxymethyl-ethylamino)-pyridin-3-yl]-N-methyl-isobutyramide], the results for the Ki (at human NK1 receptor; in test [1]) were 1.29 nM and 2.57 nM, respectively.
In the case of `Cc1ccccc1-c1cc(NC(CO)CO)ncc1N(C)C(=O)C(C)(C)c1cc(C(F)(F)F)cc(C(F)(F)F)c1` [Example 143, 2-(3,5-Bis-trifluoromethyl-phenyl)-N-[6-(2-hydroxy-1-hydroxymethyl-ethylamino)-4-o-tolyl-pyridin-3-yl]-N-methyl-isobutyramide], the Ki on human NK1 receptor is 3.02 nM; in test [1] it was 3.63 nM.
The corresponding values for `C[C@@H](O)[C@@H](CO)Nc1cc(-c2ccccc2Cl)c(N(C)C(=O)C(C)(C)c2cc(C(F)(F)F)cc(C(F)(F)F)c2)cn1` [Example 144, (1R,2R)-2-(3,5-Bis-trifluoromethyl-phenyl)-N-[4-(2-chloro-phenyl)-6-(2-hydroxy-1-hydroxymethyl-propylamino)-pyridin-3-yl]-N-methyl-isobutyramide] are 3.63 nM and 1.2 nM.
On to `C[C@H](O)[C@@H](CO)Nc1cc(-c2ccccc2Cl)c(N(C)C(=O)C(C)(C)c2cc(C(F)(F)F)cc(C(F)(F)F)c2)cn1` [Example 145, (1R,2S)-2-(3,5-Bis-trifluoromethyl-phenyl)-N-[4-(2-chloro-phenyl)-6-(2-hydroxy-1-hydroxymethyl-propylamino)-pyridin-3-yl]-N-methyl-isobutyramide], for which the Ki at human NK1 receptor was 0.832 nM; in test [1] it was 7.94 nM.
`C[C@@H](O)[C@H](CO)Nc1cc(-c2ccccc2Cl)c(N(C)C(=O)C(C)(C)c2cc(C(F)(F)F)cc(C(F)(F)F)c2)cn1` [Example 146, (1S,2R)-2-(3,5-Bis-trifluoromethyl-phenyl)-N-[4-(2-chloro-phenyl)-6-(2-hydroxy-1-hydroxymethyl-propylamino)-pyridin-3-yl]-N-methyl-isobutyramide]: the Ki on human NK1 receptor was 0.891 nM; in test [1] it was 11.7 nM.
For `C[C@H](O)[C@H](CO)Nc1cc(-c2ccccc2Cl)c(N(C)C(=O)C(C)(C)c2cc(C(F)(F)F)cc(C(F)(F)F)c2)cn1` [Example 147, (1S,2S)-2-(3,5-Bis-trifluoromethyl-phenyl)-N-[4-(2-chloro-phenyl)-6-(2-hydroxy-1-hydroxymethyl-propylamino)-pyridin-3-yl]-N-methyl-isobutyramide], the Ki at human NK1 receptor is 0.724 nM; in test [1] it was 10.5 nM.
The corresponding values for `CCCCCCN(CCO)c1cc(-c2ccccc2Cl)c(N(C)C(=O)C(C)(C)c2cc(C(F)(F)F)cc(C(F)(F)F)c2)cn1` [Example 148, 2-(3,5-Bis-trifluoromethyl-phenyl)-N-{4-(2-chloro-phenyl)-6-[hexyl-(2-hydroxy-ethyl)-amino]-pyridin-3-yl}-N-methyl-isobutyramide] are 2.09 nM and 12 nM.
Take `CCCCCN(CCO)c1cc(-c2ccccc2Cl)c(N(C)C(=O)C(C)(C)c2cc(C(F)(F)F)cc(C(F)(F)F)c2)cn1` [Example 149, 2-(3,5-Bis-trifluoromethyl-phenyl)-N-{4-(2-chloro-phenyl)-6-[(2-hydroxy-ethyl)-pentyl-amino]-pyridin-3-yl}-N-methyl-isobutyramide]: the inhibition constant (Ki) on human NK1 receptor was 1.29 nM; in test [1] it was 6.17 nM.
For the compound `CN(C(=O)C(C)(C)c1cc(C(F)(F)F)cc(C(F)(F)F)c1)c1cnc(N(CCO)CCCO)cc1-c1ccccc1Cl` [Example 150, 2-(3,5-Bis-trifluoromethyl-phenyl)-N-{4-(2-chloro-phenyl)-6-[(2-hydroxy-ethyl)-(3-hydroxy-propyl)-amino]-pyridin-3-yl}-N-methyl-isobutyramide], the Ki on human NK1 receptor was 1.32 nM; in test [1], 0.977 nM.
